Source: patent US12077555B2, “STAT degraders and uses thereof” (Kymera Therapeutics, Inc., priority 2019, dated 2024)
Read-outs that look alike come from different tables or passages of the source.

Target: STAT3 (Homo sapiens, UniProt P40763)
Assay: STAT3 HiBiT degradation assay in transfected A549 cells
Assay type: cell-based
Set-up: expressed in transfected cells; host or cells: A549
How it was run: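 Transfected A549 cells (~2000/well) plated 24 h, then treated 24 h at 37 °C, 5% CO2 with a 3-fold, 10-point compound dilution. HiBiT lytic luminescence read after 10 min at room temperature; remaining STAT3 normalized to negative and positive controls, four-parameter fit. DC50 binned A <0.01, B 0.01–0.1, C 0.1–1.0, D >1.0 µM.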

[1] = A549, 24 h; read-out: STAT3 HiBiT A549 degradation 24 h: Average external-Abs DC50

STAT3, sequence (P40763 whole entry): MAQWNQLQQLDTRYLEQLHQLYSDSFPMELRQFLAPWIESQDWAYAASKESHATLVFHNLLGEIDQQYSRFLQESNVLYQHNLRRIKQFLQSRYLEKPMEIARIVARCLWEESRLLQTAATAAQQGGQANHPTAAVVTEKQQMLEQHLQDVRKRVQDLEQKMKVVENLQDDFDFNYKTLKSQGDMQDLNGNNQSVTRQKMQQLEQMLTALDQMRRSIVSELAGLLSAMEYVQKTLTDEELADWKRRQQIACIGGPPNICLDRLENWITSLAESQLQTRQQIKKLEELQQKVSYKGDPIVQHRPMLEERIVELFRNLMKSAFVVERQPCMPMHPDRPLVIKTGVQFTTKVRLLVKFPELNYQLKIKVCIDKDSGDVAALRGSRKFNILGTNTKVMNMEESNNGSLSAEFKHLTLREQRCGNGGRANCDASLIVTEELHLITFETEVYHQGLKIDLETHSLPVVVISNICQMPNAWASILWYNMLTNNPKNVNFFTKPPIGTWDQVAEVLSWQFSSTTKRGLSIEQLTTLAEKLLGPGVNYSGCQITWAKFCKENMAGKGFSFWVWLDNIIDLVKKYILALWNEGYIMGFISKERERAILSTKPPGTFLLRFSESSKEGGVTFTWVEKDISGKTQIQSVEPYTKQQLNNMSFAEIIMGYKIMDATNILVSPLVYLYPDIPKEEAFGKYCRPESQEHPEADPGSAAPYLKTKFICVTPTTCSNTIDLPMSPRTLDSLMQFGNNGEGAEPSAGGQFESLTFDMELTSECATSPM

Q: How did the DC50 [1] turn out when `Cc1ncsc1-c1ccc(CNC(=O)[C@@H]2C[C@@H](O)CN2C(=O)[C@@H](NC(=O)CCCCc2ccc(CN(C)C[C@H](CCC(N)=O)NC(=O)[C@@H]3Cc4cccc5c4N3C(=O)[C@@H](NC(=O)c3cc4cc(C(=O)P(=O)(O)O)ccc4[nH]3)CC5)cc2)C(C)(C)C)cc1` [Compound I-179, 2-[[(2S,11S)-2-[[(2S)-4-carbamoyl-1-([[4-(4-[[(2S)-1-[(2S,4R)-4-hydroxy-2-([[4-(4-methyl-1,3-thiazol-5-yl)phenyl]methyl]carbamoyl)pyrrolidin-1-yl]-3,3-dimethyl-1-oxobutan-2-yl]carbamoyl]butyl)phenyl]methyl](methyl)amino)butan-2-yl]carbamoyl]-12-oxo-1-azatricyclo[6.4.1.0^[4,13]]trideca-4(13),5,7-trien-11-yl]carbamoyl]-1H-indole-5-carbonylphosphonic acid] was run?
A: 100 to 1000 nM

Q: Which DC50 [1] does the source give for `Cn1c(=O)n(C2CCC(=O)NC2=O)c2ccc(CCCCCCC(=O)N3CC[C@H]4CC[C@@H](C(=O)N[C@H](CCC(N)=O)C(=O)NC(c5ccccc5)c5ccccc5)N4C(=O)[C@@H](NC(=O)c4cc5cc(C(=O)P(=O)(O)O)ccc5[nH]4)C3)cc21` (stereo partly drawn) [Compound I-181, 2-[[(5S,8S,10aR)-8-[[(1R)-3-carbamoyl-1-(diphenylmethylcarbamoyl)propyl]carbamoyl]-3-[7-[1-(2,6-dioxopiperidin-3-yl)-3-methyl-2-oxo-1,3-benzodiazol-5-yl]heptanoyl]-6-oxo-octahydropyrrolo[1,2-a][1,5]diazocin-5-yl]carbamoyl]-1H-indole-5-carbonylphosphonic acid] here?
A: > 1000 nM

Q: With `Cn1c(=O)n(C2CCC(=O)NC2=O)c2ccc(CCCCCCCc3cc4c5c(c3)C[C@@H](C(=O)N[C@@H](CCC(N)=O)C(=O)NC(c3ccccc3)c3ccccc3)N5C(=O)[C@@H](NC(=O)c3cc5cc(C(=O)P(=O)(O)O)ccc5[nH]3)CC4)cc21` (stereo partly drawn) [Compound I-182, 2-[[(2S,11S)-2-[[(1S)-3-carbamoyl-1-(diphenylmethylcarbamoyl)propyl]carbamoyl]-6-[7-[1-(2,6-dioxopiperidin-3-yl)-3-methyl-2-oxo-1,3-benzodiazol-5-yl]heptyl]-12-oxo-1-azatricyclo[6.4.1.0^[4,13]]trideca-4(13),5,7-trien-11-yl]carbamoyl]-1H-indole-5-carbonylphosphonic acid] as the compound, how does the DC50 [1] read?
A: 100 to 1000 nM

Q: Which DC50 (read-out: STAT3 HiBiT A549 degradation 24 h: Average external-Abs DC50; A549, 24 h) does the source give for `C[C@@H](OCc1ccc(Br)cc1)[C@H](CCC(N)=O)NC(=O)[C@@H]1CC[C@@H]2CCN(C(=O)CCCCCCc3ccc4c(c3)n(C)c(=O)n4C3CCC(=O)NC3=O)C[C@H](NC(=O)c3cc4cc(C(=O)P(=O)(O)O)ccc4[nH]3)C(=O)N21` (stereo partly drawn) [Compound I-183, 2-[[(5S,8S,10aR)-8-[[(3S,4R)-4-[(4-bromophenyl)methoxy]-1-carbamoylpentan-3-yl]carbamoyl]-3-[7-[1-(2,6-dioxopiperidin-3-yl)-3-methyl-2-oxo-1,3-benzodiazol-5-yl]heptanoyl]-6-oxo-octahydropyrrolo[1,2-a][1,5]diazocin-5-yl]carbamoyl]-1H-indole-5-carbonylphosphonic acid] here?
A: 100 to 1000 nM

Q: For `C[C@@H](OCc1ccccc1)[C@H](CCC(N)=O)NC(=O)[C@@H]1CC[C@@H]2CCN(C(=O)CCCCCCc3ccc4c(c3)n(C)c(=O)n4C3CCC(=O)NC3=O)C[C@H](NC(=O)c3cc4cc(C(=O)P(=O)(O)O)ccc4[nH]3)C(=O)N21` (stereo partly drawn) [Compound I-184, 2-[[(5S8S,10aR)-8-[[(3S,4R)-4-(benzyloxy)-1-carbamoylpentan-3-yl]carbamoyl]-3-[7-[1-(2,6-dioxopiperidin-3-yl)-3-methyl-2-oxo-1,3-benzodiazol-5-yl]heptanoyl]-6-oxo-octahydropyrrolo[1,2-a][1,5]diazocin-5-yl]carbamoyl]-1H-indole-5-carbonylphosphonic acid], which DC50 [1] is on record?
A: 100 to 1000 nM

Q: Which DC50 [1] does the source give for `Cc1ncsc1-c1ccc([C@H](C)NC(=O)[C@@H]2C[C@@H](O)CN2C(=O)[C@@H](NC(=O)CCCc2cccc(OC[C@@H](NC(=O)[C@@H]3Cc4cccc5c4N3C(=O)[C@@H](NC(=O)c3cc4cc(C(=O)P(=O)(O)O)ccc4[nH]3)CC5)C(N)=O)c2)C(C)(C)C)cc1` [Compound I-194, diammonium 2-[[(2S,11S)-2-[[(2S)-4-carbamoyl-1-[3-(3-[[(2S)-1-[(2S,4R)-4-hydroxy-2-[[(1S)-1-[4-(4-methyl-1,3-thiazol-5-yl)phenyl]ethyl]carbamoyl]pyrrolidin-1-yl]-3,3-dimethyl-1-oxobutan-2-yl]carbamoyl]propyl)phenoxy]butan-2-yl]carbamoyl]-12-oxo-1-azatricyclo[6.4.1.0^[4,13]]trideca-4(13),5,7-trien-11-yl]carbamoyl]-1H-indole-5-carbonylphosphonate] here?
A: 10 to 100 nM

Q: `Cn1c(=O)n(C2CCC(=O)NC2=O)c2ccc(C[C@H]3CC[C@@H](CC(=O)N4CC[C@H]5CC[C@@H](C(=O)N[C@@H](CCC(N)=O)C(=O)NCc6cccc7ccccc67)N5C(=O)[C@@H](NC(=O)c5cc6cc(C(=O)P(=O)(O)O)ccc6[nH]5)C4)CC3)cc21` (stereo partly drawn) [Compound I-197, 2-[[(5S,8S,10aR)-8-[[(1S)-3-carbamoyl-1-[(naphthalen-1-ylmethyl)carbamoyl]propyl]carbamoyl]-6-oxo-3-[2-[(1S,4S)-4-[[1-(2,6-dioxopiperidin-3-yl)-3-methyl-2-oxo-1,3-benzodiazol-5-yl]methyl]cyclohexyl]acetyl]-octahydropyrrolo[1,2-a][1,5]diazocin-5-yl]carbamoyl]-1H-indole-5-carbonylphosphonic acid] was tested. Which DC50 [1] did it give?
A: 100 to 1000 nM

Q: For `Cn1c(=O)n(C2CCC(=O)NC2=O)c2ccc(CCCCCc3cc4c5c(c3)C[C@@H](C(=O)N[C@@H](CCC(N)=O)C(=O)NC(c3ccccc3)c3ccccc3)N5C(=O)[C@@H](NC(=O)c3cc5cc(C(=O)P(=O)(O)O)ccc5[nH]3)CC4)cc21` (stereo partly drawn) [Compound I-198, 2-[[(2S,11S)-2-[[(1S)-3-carbamoyl-1-(diphenylmethylcarbamoyl)propyl]carbamoyl]-6-[5-[1-(2,6-dioxopiperidin-3-yl)-3-methyl-2-oxo-1,3-benzodiazol-5-yl]pentyl]-12-oxo-1-azatricyclo[6.4.1.0^[4,13]]trideca-4(13),5,7-trien-11-yl]carbamoyl]-1H-indole-5-carbonylphosphonic acid], which DC50 [1] is on record?
A: 100 to 1000 nM

Q: Which DC50 [1] does the source give for `Cc1ncsc1-c1ccc([C@H](C)NC(=O)[C@@H]2C[C@@H](O)CN2C(=O)[C@@H](NC(=O)CCCCCc2cc(OC[C@@H](NC(=O)[C@@H]3Cc4cccc5c4N3C(=O)[C@@H](NC(=O)c3cc4cc(C(=O)P(=O)(O)O)ccc4[nH]3)CC5)C(N)=O)ccc2Cl)C(C)(C)C)cc1` [Compound I-199, diammonium 2-[[(2S,11S)-2-[[(2S)-4-carbamoyl-1-[4-chloro-3-(5-[[(2S)-1-[(2S,4R)-4-hydroxy-2-[[(1S)-1-[4-(4-methyl-1,3-thiazol-5-yl)phenyl]ethyl]carbamoyl]pyrrolidin-1-yl]-3,3-dimethyl-1-oxobutan-2-yl]carbamoyl]pentyl)phenoxy]butan-2-yl]carbamoyl]-12-oxo-1-azatricyclo[6.4.1.0^[4,13]]trideca-4(13),5,7-trien-11-yl]carbamoyl]-1H-indole-5-carbonylphosphonate] here?
A: 10 to 100 nM

Q: `Cc1ncsc1-c1ccc([C@H](C)NC(=O)[C@@H]2C[C@@H](O)CN2C(=O)[C@@H](NC(=O)CCCCCc2ccc(Cl)c(OC[C@H](CCC(N)=O)NC(=O)[C@@H]3Cc4cccc5c4N3C(=O)[C@@H](NC(=O)c3cc4cc(C(=O)P(=O)(O)O)ccc4[nH]3)CC5)c2)C(C)(C)C)cc1` [Compound I-200] was tested. Which DC50 [1] did it give?
A: > 1000 nM

Q: `Cn1c(=O)n(C2CCC(=O)NC2=O)c2ccc(CC[C@H]3CC[C@@H](C(=O)N4CC[C@H]5CC[C@@H](C(=O)N[C@@H](CCC(N)=O)C(=O)NC(c6ccccc6)c6ccccc6)N5C(=O)[C@@H](NC(=O)c5cc6cc(C(=O)P(=O)(O)O)ccc6[nH]5)C4)CC3)cc21` (stereo partly shown) [Compound I-202] was tested. Which DC50 [1] did it give?
A: 10 to 100 nM

Q: With `Cn1c(=O)n(C2CCC(=O)NC2=O)c2ccc(CC[C@H]3CC[C@H](C(=O)N4CC[C@H]5CC[C@@H](C(=O)N[C@@H](CCC(N)=O)C(=O)NC(c6ccccc6)c6ccccc6)N5C(=O)[C@@H](NC(=O)c5cc6cc(C(=O)P(=O)(O)O)ccc6[nH]5)C4)CC3)cc21` (stereo partly drawn) [Compound I-203, 2-[[(5S,8S,10aR)-8-[[(1S)-3-carbamoyl-1-(diphenylmethylcarbamoyl)propyl]carbamoyl]-6-oxo-3-[(1r,4r)-4-[2-[1-(2,6-dioxopiperidin-3-yl)-3-methyl-2-oxo-1,3-benzodiazol-5-yl]ethyl]cyclohexanecarbonyl]-octahydropyrrolo[1,2-a][1,5]diazocin-5-yl]carbamoyl]-1H-indole-5-carbonylphosphonic acid] as the compound, how does the DC50 [1] read?
A: 10 to 100 nM

Q: `Cc1ncsc1-c1ccc([C@H](C)NC(=O)[C@@H]2C[C@@H](O)CN2C(=O)[C@@H](NC(=O)CCCCCc2cc(Cl)cc(OC[C@@H](NC(=O)[C@@H]3Cc4cccc5c4N3C(=O)[C@@H](NC(=O)c3cc4cc(C(=O)P(=O)(O)O)ccc4[nH]3)CC5)C(N)=O)c2)C(C)(C)C)cc1` [Compound I-204, 2-[[(2S,11S)-2-[[(2S)-4-carbamoyl-1-[3-chloro-5-(5-[[(2S)-1-[(2S,4R)-4-hydroxy-2-[[(1S)-1-[4-(4-methyl-1,3-thiazol-5-yl)phenyl]ethyl]carbamoyl]prrolidin-1-yl]-3,3-dimethyl-1-oxobutan-2-yl]carbamoyl]pentyl)phenoxy]butan-2-yl]carbamoyl]-12-oxo-1-azatricyclo[6.4.1.0^[4,13]]trideca-4(13),5,7-trien-11-yl]carbamoyl]-1H-indole-5-carbonylphosphonic acid] was tested. Which DC50 [1] did it give?
A: 10 to 100 nM
